Data taken from patent publication US8952024B2, “Herbicidal pyrimidone derivatives” (E I du Pont de Nemours and Company, priority 2009, dated 2015).
Where two headings read alike, the source gives them in different places.

Key:
Format in all cases: in vivo
[1] = tested on: giant foxtail (Setaria faberii); test: Test B pre-/postemergence plant response; conditions: Setaria faberi; for pest or weed control at 62 g/ha: 62 g ai/ha
Method in brief: (§1)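 Plants treated either at seeding (loam/sand soil) or postemergence at 2 to 18 cm height, using a surfactant-containing non-phytotoxic solvent formulation. Evaluation was visual after 13 to 15 days, 0 to 100 scale relative to controls.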

[2] = tested on: wheat (Triticum aestivum); test: Test B pre-/postemergence plant response; conditions: for plant injury at 31 g/ha: 31 g ai/ha; for plant injury at 62 g/ha: 62 g ai/ha
Method in brief: as §1

rice (Oryza sativa) = test: Test B flooded paddy test; conditions: Oryza sativa
Method in brief: (§2)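 Plants were grown to the 2-leaf stage, then pots were flooded to 3 cm above the soil and compounds were applied directly into the paddy water. That depth was held throughout. After 13 to 15 days in a greenhouse, injury was visually rated against controls on a 0–100 scale.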

[3] = tested on: umbrella sedge (Cyperus difformis); test: Test B flooded paddy test; conditions: Cyperus difformis, 360 h
Method in brief: as §2

[4] = tested on: barnyardgrass (Echinochloa crus-galli); test: Test B flooded paddy test; conditions: Echinochloa crus-galli, 360 h
Method in brief: as §2

[5] = tested on: ducksalad (Heteranthera limosa); test: Test B flooded paddy test; conditions: Heteranthera limosa, 360 h
Method in brief: as §2

[6] = tested on: morningglory (Ipomoea spp.); test: Test A pre-/postemergence plant response; conditions: Ipomoea, 240 h; for pest or weed control at 125 g/ha: 125 g ai/ha; for pest or weed control at 500 g/ha: 500 g ai/ha
Method in brief: (§3)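 Pre: directed soil spray on seeded loam/sand blend. Post: same formulation (non-phytotoxic solvent + surfactant) on 2–10 cm plants, 1–2 leaf stage. Greenhouse ~10 d; visual injury score 0–100 vs untreated.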

[7] = tested on: pigweed (Amaranthus retroflexus); test: Test A pre-/postemergence plant response; conditions: Amaranthus retroflexus, 240 h; for pest or weed control at 125 g/ha: 125 g ai/ha; for pest or weed control at 500 g/ha: 500 g ai/ha
Method in brief: as §3

[8] = Triticum aestivum, pre-emergence, Preemergence, scale 0 to 100 (0 no effect, 100 complete control), read-out: Plant response rating, Wheat

O=C1CCCC(O)=C1C(=O)c1cnc(-c2ccccc2)n(-c2ccccc2)c1=O [Compound 2, 5-[(2-hydroxy-6-oxo-1-cyclohexen-1-yl)carbonyl]-2,3-diphenyl-4(3H)-pyrimidinone]
pest or weed control at 62 g/ha ([1]; post-emergence, Postemergence, scale 0 (no effect) to 100 (complete control), 13 to 15 days, read-out: Plant response rating, Foxtail, Giant): 85% | pest or weed control at 125 g/ha ([1]; post-emergence, Postemergence, 125 g ai/ha, visual rating after 13 to 15 days, scale 0 (no effect) to 100 (complete control)): 85% | pest or weed control at 16 g/ha ([1]; pre-emergence, Preemergence, 16 g ai/ha, scale 0 to 100 (0 no effect, 100 complete control), read-out: Plant response rating, Foxtail, Giant): 0% | pest or weed control at 31 g/ha ([1]; pre-emergence, Preemergence, 31 g ai/ha, scale 0 to 100 (0 no effect, 100 complete control), read-out: Plant response rating, Foxtail, Giant): 15% | pest or weed control at 62 g/ha ([1]; pre-emergence, Preemergence, scale 0 to 100, 0 no effect, 100 complete control, read-out: Plant response rating, Foxtail, Giant): 20% | Wheat plant response rating ([2]; Preemergence, 125 g ai/ha, 0 to 100 scale): 0 | plant injury at 16 g/ha ([2]; Triticum aestivum, post-emergence, 16 g ai/ha, Postemergence, 0 to 100 scale, read-out: Plant response rating, Wheat): 0% | plant injury at 31 g/ha ([2]; Triticum aestivum, post-emergence, Postemergence, scale 0 to 100 (0 no effect, 100 complete control), read-out: Plant response rating, Wheat): 5% | plant injury at 62 g/ha ([2]; Triticum aestivum, post-emergence, Postemergence, scale 0 (no effect) to 100 (complete control), 13 to 15 days, read-out: Plant response rating, Wheat): 10% | plant injury at 125 g/ha ([2]; Triticum aestivum, post-emergence, Postemergence, 125 g ai/ha, visual rating after 13 to 15 days, scale 0 (no effect) to 100 (complete control)): 20% | plant injury at 31 g/ha [2, 8]: 0% | plant injury at 62 g/ha [2, 8]: 0% | plant injury at 250 g/ha (rice (Oryza sativa); 250 g ai/ha, flooded paddy test, visual rating on 0 to 100 scale (0 no effect, 100 complete control) after 13 to 15 days, read-out: Plant response rating, Flood, Rice): 8% | plant injury at 31 g/ha (rice (Oryza sativa); Flood (flooded paddy test), 31 g ai/ha, scale of 0 to 100 where 0 is no effect and 100 is complete control, 13 to 15 days, read-out: Plant response rating, Rice): 0% | plant injury at 62 g/ha (rice (Oryza sativa); Flood (flooded paddy test), 62 g ai/ha, scale 0 to 100, 0 is no effect, 100 is complete control, 13 to 15 days, read-out: Plant response rating, Rice): 0% | plant injury at 125 g/ha (rice (Oryza sativa); Flood (flooded paddy test), 125 g ai/ha, scale 0 to 100, 0 is no effect, 100 is complete control, 13 to 15 days, read-out: Plant response rating, Rice): 0% | pest or weed control at 250 g/ha ([3]; 250 g ai/ha, flooded paddy test, visual rating on 0 to 100 scale (0 no effect, 100 complete control) after 13 to 15 days, read-out: Plant response rating, Flood, Sedge, Umbrella): 75% | pest or weed control at 31 g/ha ([3]; Flood (flooded paddy test), 31 g ai/ha, scale of 0 to 100 where 0 is no effect and 100 is complete control, 13 to 15 days, read-out: Plant response rating, Sedge, Umbrella): 0% | pest or weed control at 62 g/ha ([3]; Flood (flooded paddy test), 62 g ai/ha, scale 0 to 100, 0 is no effect, 100 is complete control, 13 to 15 days, read-out: Plant response rating, Sedge, Umbrella): 0% | pest or weed control at 125 g/ha ([3]; Flood (flooded paddy test), 125 g ai/ha, scale 0 to 100, 0 is no effect, 100 is complete control, 13 to 15 days, read-out: Plant response rating, Sedge, Umbrella): 45% | pest or weed control at 250 g/ha ([4]; 250 g ai/ha, flooded paddy test, visual rating on 0 to 100 scale (0 no effect, 100 complete control) after 13 to 15 days, read-out: Plant response rating, Flood, Barnyardgrass): 0% | pest or weed control at 31 g/ha ([4]; Flood (flooded paddy test), 31 g ai/ha, scale of 0 to 100 where 0 is no effect and 100 is complete control, 13 to 15 days, read-out: Plant response rating, Barnyardgrass): 0% | pest or weed control at 62 g/ha ([4]; Flood (flooded paddy test), 62 g ai/ha, scale 0 to 100, 0 is no effect, 100 is complete control, 13 to 15 days, read-out: Plant response rating, Barnyardgrass): 0% | pest or weed control at 125 g/ha ([4]; Flood (flooded paddy test), 125 g ai/ha, scale 0 to 100, 0 is no effect, 100 is complete control, 13 to 15 days, read-out: Plant response rating, Barnyardgrass): 0% | pest or weed control at 250 g/ha ([5]; 250 g ai/ha, flooded paddy test, visual rating on 0 to 100 scale (0 no effect, 100 complete control) after 13 to 15 days, read-out: Plant response rating, Flood, Ducksalad): 78% | pest or weed control at 31 g/ha ([5]; Flood (flooded paddy test), 31 g ai/ha, scale of 0 to 100 where 0 is no effect and 100 is complete control, 13 to 15 days, read-out: Plant response rating, Ducksalad): 15% | pest or weed control at 62 g/ha ([5]; Flood (flooded paddy test), 62 g ai/ha, scale 0 to 100, 0 is no effect, 100 is complete control, 13 to 15 days, read-out: Plant response rating, Ducksalad): 40% | pest or weed control at 125 g/ha ([5]; Flood (flooded paddy test), 125 g ai/ha, scale 0 to 100, 0 is no effect, 100 is complete control, 13 to 15 days, read-out: Plant response rating, Ducksalad): 58% | pest or weed control at 125 g/ha ([6]; post-emergence, Postemergence, visual injury, 0 to 100 scale (0 no effect, 100 complete control), approx. ten days, read-out: Morningglory plant response rating): 90% | pest or weed control at 500 g/ha ([6]; post-emergence, Postemergence, 0 to 100 scale, 0 = no effect, 100 = complete control, approx. ten days, read-out: Plant response rating, Morningglory): 100% | pest or weed control at 125 g/ha ([6]; pre-emergence, Preemergence, 0 to 100 scale, 0 = no effect, 100 = complete control, read-out: Plant response rating, Morningglory): 60% | pest or weed control at 500 g/ha ([6]; pre-emergence, Preemergence, visual injury, 0 to 100 scale (0 no effect, 100 complete control), approx. ten days, read-out: Plant response rating, Morningglory): 90% | pest or weed control at 125 g/ha ([7]; post-emergence, Postemergence, visual injury, 0 to 100 scale (0 no effect, 100 complete control), approx. ten days, read-out: Pigweed plant response rating): 100% | pest or weed control at 500 g/ha ([7]; post-emergence, Postemergence, 0 to 100 scale, 0 = no effect, 100 = complete control, approx. ten days, read-out: Plant response rating, Pigweed): 100% | pest or weed control at 125 g/ha ([7]; pre-emergence, Preemergence, 0 to 100 scale, 0 = no effect, 100 = complete control, read-out: Plant response rating, Pigweed): 100% | pest or weed control at 500 g/ha ([7]; pre-emergence, Preemergence, visual injury, 0 to 100 scale (0 no effect, 100 complete control), approx. ten days, read-out: Plant response rating, Pigweed): 100%
